We go through four molecules from PMC11825922, “Molecular interactions, structural effects, and binding affinities between silver ions (Ag^+) and amyloid beta (Aβ) peptides” (Scientific Reports, 2025).

Read-outs that look alike come from different tables or passages of the source.

For one test, the target named is Aβ peptides. The settings on record: cited from earlier work.
The target in another test is T1, Aβ40 peptide (Homo sapiens, UniProt P05067).
T1 construct: Aβ(1–40) and Aβ(1–42), here abbreviated Aβ40 and Aβ42; purchased AlexoTech AB (Umeå, Sweden)
In words: CD spectroscopy on Aβ secondary structure. The settings on record: 10 µM Aβ40, 20 mM phosphate buffer pH 7.3, 16–256 µM AgNO3, 20 °C. The procedure: Circular dichroism (CD) spectroscopy was performed with a Chirascan CD instrument (Applied Photophysics Ltd., U.K.) using a quartz cuvette with 2 mm pathlength containing 600 µL of 10 µM Aβ40 peptide in 20 mM phosphate buffer, pH 7.3. CD spectra were recorded at 20 °C between 190 and 260 nm, with 0.5 nm step size. One sample contained only Aβ40 in buffer, while another sample contained also 50 mM SDS detergent, in order to mimic a membrane environment. To both samples, AgNO3 was added in steps of 16 µM, 56 µM, and 256 µM. The Chirascan Pro-Data v.4.4.1 software (Applied Photophysics Ltd., U.K.) was used to process the recorded spectra with an eight points smoothing filter (Savitzky-Golay).
Figure 3 CD spectra of 10 μM Aβ40 peptide in 20 mM phosphate buffer, pH 7.3. AgNO3 was titrated to the peptide, either in (A): buffer only, or (B): with 50 mM SDS present. Black: Aβ40 in buffer. Orange: + 50 mM SDS (in B only). Red: + 16 µM AgNO3. Green: + 56 µM AgNO3. Blue: + 256 µM AgNO3.

Another test addresses T2, Aβ40 peptide fibrils (Homo sapiens, UniProt P05067).
T2 construct: Aβ(1–40) and Aβ(1–42), here abbreviated Aβ40 and Aβ42; purchased AlexoTech AB (Umeå, Sweden)
In words: AFM imaging of Aβ40 aggregates after 72 h incubation. Conditions: 30 µM AgNO3, 10 µM Aβ40, 72 h, 37 °C, 5 mM MES pH 7.3. The procedure:
Samples for AFM imaging were produced by incubating 10 µM Aβ40 peptides in 5 mM MES buffer, pH 7.3, for 72 h at 37 °C with continuous shaking at 350 rpm together with different amounts of AgNO3, i.e. 0 µM; 2.5 µM; 5 µM; and 30 µM (corresponding to Ag^+:Aβ ratios of 0:1; 1:4; 1:2; and 3:1, respectively). The incubated samples were placed as 1 µL droplets on fresh silicon wafers (Siegert Wafer GmbH, Germany). After 2 min, 10 µL of Milli-Q water was added to the droplets, and then a lint-free wipe was used to remove all excess fluid. Next, the wafers were left to air-dry in a container, covered to protect from dust, and later the same day AFM images were recorded. A neaSNOM AFM unit (Neaspec GmbH, Germany) was used, running in tapping mode (Ω: 280 kHz, tapping amplitude 50–55 nm) and equipped with Pt/Ir-coated monolithic ARROW-NCPt Si tips (NanoAndMore GmbH, Germany) where the tip radius was less than 10 nm. Both topographic and mechanical phase images were recorded for 2.5 × 2.5 µm scanning areas (pixel size 200 × 200) with a scan speed of 2.5 ms/pixel. The images were minimally processed to perform basic plane levelling using the Gwyddion software.
Figure 4 AFM images for 10 µM Aβ40 peptides together with different concentrations of AgNO3, incubated with agitation for 72 h at 37 °C in 5 mM MES buffer, pH 7.3. (A) 0 µM AgNO3; (B) 2.5 µM AgNO3; (C) 5 µM AgNO3; (D) 30 µM AgNO3. […]

For a further test, the target named is T3, wt Aβ40 peptide (Homo sapiens, UniProt P05067).
T3 construct: Aβ(1–40) and Aβ(1–42), here abbreviated Aβ40 and Aβ42; purchased AlexoTech AB (Umeå, Sweden)
Kind of test: Tyr10 intrinsic fluorescence quenching titration with AgNO3, Morrison equation fit. The format is binding. Conditions: 20 mM MES buffer, 20 °C, read-out: Mean KD^App value. The procedure: A Jobin Yvon Horiba Fluorolog 3 fluorescence spectrophotometer (Longjumeau, France) was used to record the fluorescence emission intensity at 305 nm (excitation wavelength 276 nm) for samples of 10 µM Aβ peptide in 20 mM MES buffer, using a quartz cuvette with 4 mm path length at 20 °C. Measurements were carried out at pH 7.2 for different Aβ variants, i.e. Aβ40, Aβ40(NoHis) mutant, Aβ40(H6A) mutant, and Aβ(4–40). For Aβ40, measurements were carried out also at pH 5.3, and at pH 7.2 in the presence of 50 mM SDS detergent. AgNO3 was titrated to the samples using stock solutions of 1 mM, 2 mM, and 10 mM. The measured tyrosine fluorescence intensities were plotted against the concentration of Ag^+ ions, and dissociation constants were evaluated by fitting the data curves to Eq. (1), i.e. the Morrison Equation [94]:1 I=I0+I∞-I0/2·Aβ·KD+Ag+Aβ-KD+Ag+Aβ^2-4·Ag·Aβ
Here, I0 is the initial fluorescence intensity with no added Ag^+ ions, I∞ is the steady-state intensity at the end of the titration, [Ag] is the concentration of added Ag^+ ions, KD is the dissociation constant, and [Aβ] is the concentration of Aβ peptide. […] Adding a linear term for the fluorescence quenching effect of free Ag^+ ions was considered unnecessary. […]
It is previously known that Ag^+ ions can quench the intrinsic fluorescence of amino acids such as tyrosines, including the Tyr10 residue in Aβ peptides. […]

Test [1] deals with T4, Aβ42 oligomers (Homo sapiens, UniProt P05067).
T4 construct: Synthetic lyophilized wildtype (wt) Aβ(1–42) peptide, abbreviated Aβ42; purchased JPT Peptide Technologies GmbH (Germany); host or cells: chemical synthesis
In words: FTIR spectroscopy of SDS-stabilized Aβ42 oligomers. Conditions: 0–500 µM AgNO3; FTIR with BN-PAGE. The method, then: (§1) The Aβ42 monomers were then used to prepare SDS-stabilized Aβ42 oligomers of approximately tetrameric size, using a previously published protocol[83] with the following modifications: the oligomers were prepared in D2O, at four-fold lower peptide concentration, and without the original dilution step[85]. The reaction mixture (100–120 μM Aβ42 in D2O-based PBS, containing 0.2% (6.9 mM) SDS) was incubated at 37 °C for 24 h together with either 0, 10, 100, or 500 µM AgNO3, respectively, and then flash-frozen in liquid N2 and stored at –20 °C for later analysis.
Fourier-transform infrared (FTIR) spectra of SDS-stabilized Aβ42 oligomers (prepared as described in Section “Preparation of Aβ42 oligomers” with 0–500 µM AgNO3) were recorded in transmission mode on a Tensor 37 FTIR spectrometer (Bruker Optik GmbH., Germany) equipped with a […] and a liquid nitrogen-cooled MCT detector. The unit was continuously purged with dry air during the measurements. […] The sample shuttle allowed sample and reference spectra to be recorded without opening the chamber. FTIR spectra were recorded at room temperature in the 1900–800 cm^–1 range, using 6 mm aperture, 2 cm^–1 resolution, a zero-filling factor of two, and 300 scans for both background and sample spectra. […] All spectra were analyzed and plotted using the OPUS 5.5 software. Second derivatives were calculated with a 17 cm^–1 smoothing factor. […]

The target of test [2] is T4, Aβ42 oligomers. Kind of test: BN-PAGE analysis of SDS-stabilized Aβ42 oligomers. The settings on record: 10, 100, 500 µM AgNO3, 100–120 µM Aβ42, 0.2% SDS, 37 °C 24 h. The method, then:
as §1
Homogeneous solutions of SDS-stabilized Aβ42 oligomers, prepared as described in Section “Preparation of Aβ42 oligomers” with either 0, 10, 100, or 500 µM silver nitrate, were analyzed with BN-PAGE using the Invitrogen system (ThermoFisher Scientific, USA). For this purpose, 4–16% Bis–Tris Novex gels (ThermoFisher Scientific, USA) were loaded with 10 μL of samples containing either Aβ42 monomers or Aβ42 oligomers with increasing concentrations of silver, calibrated against the Amersham High Molecular Weight calibration kit for native electrophoresis (GE Healthcare, USA). The gel was first run at 4 °C for 90 min and then stained with the Pierce Silver Staining kit according to the manufacturer’s instructions (ThermoFisher Scientific, USA). […]

T3 sequence (P05067 672-711 limits assumed): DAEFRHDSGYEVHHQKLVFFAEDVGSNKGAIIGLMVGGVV
T4 sequence (P05067 672-713 limits assumed): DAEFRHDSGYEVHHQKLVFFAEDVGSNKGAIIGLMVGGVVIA
T1 sequence (P05067 672-711 limits assumed): as the sequence (P05067 672-711 limits assumed) above
T2 sequence (P05067 672-711 limits assumed): as above

Regarding `[Cu+2]` [Cu^2+], the “Binding affinity” value on Aβ peptides is on record as “sub-micromolar”. Also, the Kd at Aβ peptides (fluorescence measurements, read-out: Binding affinity for the Aβ·Cu^2+ complex, corrected for buffer effects) is approximately 0.001 µM.

Consider `[Ni+2]` [Ni^2+], for which the Kd on Aβ peptides (read-out: Binding affinity) was 1 to 50 µM.

In the case of `[Zn+2]` [Zn^2+], at Aβ peptides (read-out: Binding affinity), the Kd is 1 to 50 µM.

As for monovalent silver ions (Ag^+), at Aβ40 peptide, the “Effect on Aβ40 secondary structure (CD)” value is recorded as “slightly increased β-sheet structure”. In addition, the “Effect on Aβ40 fibril morphology (AFM)” value at Aβ40 peptide fibrils is given as “much more tangled together”. In addition, the Kd stood at 25 µM on wt Aβ40 peptide (Aβ40 pH 7.2 + 50 mM SDS) and 25 µM on wt Aβ40 peptide (Aβ40 pH 7.2, 10 µM peptide). Besides, at Aβ42 oligomers [1], the “Effect on size, secondary structure, β-sheet planarity and number of strands of Aβ42 oligomers” value was “no significant effect”. In addition, the “Average sizes, amounts and size distributions of Aβ42 oligomers versus without silver” value at Aβ42 oligomers [2] is reported as “approximately the same”.
